Data as given in patent US20180237362A1, “NOVEL POLYGODIAL ANALOGS FOR THE TREATMENT OF CANCER AND OTHER PROLIFERATIVE DISEASES” (THE BOARD OF REGENTS OF THE UNIVERSITY OF TAXAS SYSTEM, priority 2015, published 2018).
Values belong to the molecule of their own block, whether it stands above or below them.

Legend:
[1] = system: human A549 non-small cell lung cancer (NSCLC); assay: MTT antiproliferative assay, A549; type: cell-based
Experimental: (§1) Human mammary carcinoma MCF-7 (ATCC HTB22) cells were cultured in RPMI supplemented with 10% FBS. The U87 cells (ATCC HTB-14) were cultured in DMEM culture medium, while the A549 cells (DSMZ ACC107) were cultured in RPMI culture medium supplemented with 10% heat-inactivated FBS. The GBM Hs683 (ATCC HTB-138) cells were cultivated in DMEM supplemented with 10% FBS. The human uterine sarcoma MES-SA (ATCC CRL1966) and MES-SA/D×5 cells were cultured in RPMI-1640 medium supplemented with 10% FBS with MES SA/D×5 maintained in the presence of 500 nM Doxorubicin (Sigma). SKMEL-28 cells (ATCC HTB72) and U373 GBM cells (ECACC 08061901) were cultured in RPMI culture medium supplemented with 10% heat-inactivated FBS. Cell culture media were supplemented with 4 mM glutamine (Lonza code BE17-605E), 100 μg/mL gentamicin (Lonza code 17-5182), and penicillin-streptomycin (200 units/ml and 200 μg/ml) (Lonza code 17-602E). The MDA-MB-231 (ATCC HTB-26) epithelial mammary adenocarcinoma cells were cultured in Eagle's minimum essential medium (EMEM; Invitrogen) containing 5% fetal calf serum (FCS, Cambrex), 2 mM L-glutamine (Invitrogen), 0.06% HEPES (Invitrogen) and penicillin (50 IU/ml)/streptomycin (50 µg/ml; Invitrogen) at 37° C. in a humidified atmosphere of 5% CO2 in air. Transformed mouse NPCs were cultured in suspension under neurosphere conditions at 37° C. in a humidified atmosphere of […] and 5% CO2 in DMEM F12 (Invitrogen 11320-074) supplemented with 1×B27 supplement (Invitrogen 17504-044), 5% penicillin-streptomycin (Biochrom 10378-017), 10 ng/ml EGF (R&D systems 236-EG), 10 ng/ml FGF (PeproTech 100-18B).
(§2) Antiproliferative properties of the synthesized compounds were evaluated by the MTT assay. All compounds were dissolved in DMSO at a concentration of either 100 μM or 50 μM prior to cell treatment. The cells were trypsinized and seeded at various cell concentrations depending on the cell type. The cells were grown for 24 h to 72 h, treated with compounds at concentrations ranging from 0.001 to 100 μM and incubated for 48 or 72 h in 100 or 200 μL media depending on the cell line used. The number of experiments and replicates varied depending on the cell line. Cells treated with 0.1% DMSO were used as a negative control; 1 μM PAO was used as a positive control.
(§3) The synthesized C12-Wittig derivatives were evaluated for antiproliferative activities in a panel of cancer cell lines that included apoptosis-resistant human U373 glioblastoma (GBM) (Lefranc et al., 2013), human A549 non-small cell lung cancer (NSCLC) and human SKMEL-28 melanoma (Mathieu et al., 2009) as well as apoptosis-sensitive human Hs683 anaplastic oligodendroglioma (Lefranc et al., 2013) and human MCF-7 breast cancer (Frolova et al., 2013).

human SKMEL-28 melanoma = assay: MTT antiproliferative assay, SKMEL-28; type: cell-based; details: Homo sapiens, SK-MEL-28, 72 h treatment, sextuplicates, read-out: GI50 in vitro values, SKMEL-28
Experimental: as §1, §2, §3

[2] = system: human MCF-7 breast cancer; assay: MTT antiproliferative assay, MCF-7; type: cell-based; details: Homo sapiens, MCF7, 72 h treatment, sextuplicates, read-out: GI50 in vitro values, MCF-7
Experimental: as §1, §2, §3

[3] = system: human U373 glioblastoma (GBM); assay: MTT antiproliferative assay, U373; type: cell-based; details: Homo sapiens, U373 MG, 72 h treatment, sextuplicates, read-out: GI50 in vitro values, U373
Experimental: as §1, §2, §3

[4] = system: human Hs683 anaplastic oligodendroglioma; assay: MTT antiproliferative assay, Hs683; type: cell-based; details: Homo sapiens, Hs 683, 72 h treatment, sextuplicates, read-out: GI50 in vitro values, Hs683
Experimental: as §1, §2, §3

[5] = system: panel of cancer cell lines (A549, SKMEL-28, MCF-7, U373, Hs683); assay: MTT antiproliferative assay, panel of five cancer cell lines; type: cell-based, human; details: Homo sapiens; mean over five cell lines, 72 h treatment, MTT assay; read-out: GI50 in vitro values, Mean + SEM
Experimental: as §2, §3

[6] = system: U373 human glioma cell line; assay: Quantitative videomicroscopy, U373; type: cell-based; details: at GI50 concentrations (Table 1)
Experimental: FIG. 8. In vitro videomicroscopic analysis of the anticancer effects of 1 and its C12-Wittig derivatives 5 and 13. The U373 human glioma cell line was treated with polygodial, 5 and 13 at their mean GI50 concentrations (Table 1) or left untreated. Videomicroscopy enabled taking pictures of the culture field every 4 minutes. The experiment was conducted once in triplicate. While the morphology of cells treated with 1 was fixed over time, 5 and 13 exerted cytostatic effects on U373 cells.
In an effort to gain insight into possible mechanisms associated with antiproliferative properties of 1 and the C12-Wittig derivatives, the morphological changes in cells treated with these compounds were studied with computer-assisted phase-contrast microscopy (Luchetti et al., 2012) (quantitative videomicroscopy).

U373 cells = assay: Trypan blue viability assay, U373; type: cell-based, human; details: 72 h treatment
Experimental: FIG. 9. Viability of U373 cells by trypan blue staining. U373 cells were treated for 72 h with 1 or 13 and stained with trypan blue. The experiment was conducted once in triplicate. After having taken pictures, cells were fixed with ice-cold methanol and again stained with trypan blue as internal positive control.
To confirm the results obtained in the videomicroscopy experiments, trypan blue assay was employed to detect necrotic and late apoptotic cells that had lost their plasma membrane integrity (FIG. 9). […] These observations support the results of the MTT assay and provide an explanation for the effectiveness of the C12-Wittig derivatives against cells, which display resistance to apoptosis induction. In contrast, at the concentrations necessary to induce cancer cell death 1 behaves as a toxic fixative compound of little promise as a potential drug.

[7] = system: transgenic mouse glioma cells (neurosphere cultures); assay: CytoTox-Fluor cytotoxicity assay, neurosphere glioma cultures; type: cell-based; details: cdkn2a deletion, PDGFB amplification, TRPV1-deficient; 24 h; 5 at 20 μM, CBD at 10 μM
Experimental: FIGS. 5A-D. Activity of 5 against neurosphere glioma cell cultures with clinically relevant mutations. Transgenic mouse glioma cells of defined molecular subtypes were generated by forced expression of EGFRvIII (classical GBM subtype), PDGFB (proneural GBM subtype) in cdkn2a-deficient and cdkn2a/TRPV1-doubly deficient subventricular neural precursors (NPC). These primary cell cultures were treated for 24 hours either with 10 μM CBD versus a corresponding vehicle-control (containing 0.01% DMSO) or 20 μM of 5 versus vehicle control (0.02% DMSO). Cytotoxicity was measured 24 h after incubation and base-line cytotoxicity levels in the controls were arbitrarily defined as 1. Read-outs from treated cells were normalized to their respective vehicle controls and -fold change of relative cytotoxicity was calculated. Each bar represents the mean±SD from two independent experiments; statistical significance, as determined by unpaired t-tests, is indicated: *** represents p<0.001; ** p<0.005; * p=0.0257; ns not significant).
Human mammary carcinoma MCF-7 (ATCC HTB22) cells were cultured in RPMI supplemented with 10% FBS. […]
The CytoTox-Fluor cytotoxicity assay from Promega has been used according to manufacturer's instructions. […] After 2 hours of incubation at 37° C., the fluorescence intensity was measured using the Tecan InfiniteF200 fluorescence plate reader (485 nm Ex/520 nm Em). […]

[8] = system: uterine sarcoma MES-SA cells; assay: MTT antiproliferative assay, MES-SA; type: cell-based, human; details: Homo sapiens, MES-SA, 48 h treatment, relative to DMSO control, read-out: GI50 in vitro values, MES-SA
Experimental: as §1
(§4) Antiproliferative properties of the synthesized compounds were evaluated by the MTT assay. All compounds were dissolved in DMSO at a concentration of either 100 μM or 50 μM prior to cell treatment. The cells were trypsinized and seeded at various cell concentrations depending on the cell type. […]

[9] = system: MDR uterine sarcoma cell line MES-SA/Dx5; assay: MTT antiproliferative assay, MDR MES-SA/Dx5; type: cell-based, human
Experimental: as §1, §2
Selection of the MES-SA/D×5 cell line was done according to Harker et al. (Harker & Sikic, 1985). The cells were split and allowed to adhere overnight. The next day cells were initially exposed to doxorubicin (DOX) at the concentration of 100 nM, which represented the GI50 concentration. The cells were maintained at this DOX concentration until their growth rate reached that of the untreated cells. The DOX concentration was then increased in two-fold increments following the same growth criteria at each concentration to a final DOX concentration of 500 nM. Each new DOX concentration required approximately 2 passages to reach the growth rate of the untreated cells.
Often, tumors initially respond to chemotherapy but eventually become refractory to the continuing treatment. Such acquired resistance commonly occurs through the development of a multi-drug resistant phenotype (MDR) (Gottesman et al., 2002 and Saraswathy & Gong, 2013) affecting many common chemotherapeutic agents, including the vinca alkaloids (Chen et al., 2000) and taxanes (Geney et al., 2002). In addition, the development of apoptosis resistance and MDR mechanisms is often related and concurrent (Ruefli et al., 2002 and Johnstone et al., 1999), and thus it was of interest to evaluate 5 against MDR cells. Towards this end, the MDR uterine sarcoma cell line MES-SA/D×5, established by growing the parent uterine sarcoma MES-SA in the presence of increasing concentrations of doxorubicin and resistant to multiple functionally and structurally unrelated molecules (Harker & Sikic, 1985), was utilized.

[10] = system: U87 glioblastoma cell cultures; assay: MTT growth curves, U87; type: cell-based, human; details: apoptosis-resistant U87 GBM; concentrations up to 100 μM
Experimental: as §1, §4

GI50 ([1]; Homo sapiens, A549, 72 h treatment, MTT assay, sextuplicates, read-out: GI50 in vitro values, A549): 30 µM | GI50 (human SKMEL-28 melanoma): 36 µM | GI50 [2]: 30 µM | GI50 [3]: 35 µM | GI50 [4]: 33 µM | GI50 [5]: 33 ± 1 µM
SMILES: C#CCCCOC(=O)/C=C/C1=CC[C@H]2C(C)(C)CCC[C@]2(C)[C@H]1C=O [Compound 13]
morphological effect by videomicroscopy [6]: inhibited cancer cell proliferation without inducing cell death | viability by trypan blue staining (U373 cells): still alive after 72 hr of treatment

SMILES: C=C(C)[C@@H]1CCC(C)=C[C@H]1c1c(O)cc(CCCCC)cc1O [CBD, cannabidiol, reference compound]
cytotoxicity against GBM neurosphere cultures lacking the TRPV1 gene [7]: loses its activity

GI50 [8]: 0.007 µM | GI50 ([9]; Homo sapiens, MES-SA/Dx5, 48 h treatment, MTT assay, relative to DMSO control, read-out: GI50 in vitro values, MES-SA/Dx5): 10 µM
SMILES: CC(=O)O[C@H]1C(=O)[C@@]2(C)[C@H]([C@H](OC(=O)c3ccccc3)[C@]3(O)C[C@H](OC(=O)[C@H](O)[C@@H](NC(=O)c4ccccc4)c4ccccc4)C(C)=C1C3(C)C)[C@]1(OC(C)=O)CO[C@@H]1C[C@@H]2O [Paclitaxel]
effect on proliferation/viability of all cells, A549 ([1]; apoptosis-resistant A549 NSCLC, concentrations up to 100 μM): no effect on proliferation of ca. 50% of cells | change of potency against MES-SA/Dx5 MDR cell line as compared with parent MES-SA cells ([9]; 48 h MTT): lost their potency by a factor of a thousand | effect on proliferation/viability of all cells, U87 [10]: no effect on proliferation of ca. 50% of cells
